In ChEMBL document CHEMBL1131776, “Potent, elective human beta3 adrenergic receptor agonists containing a substituted indoline-5-sulfonamide pharmacophore” (Bioorg Med Chem Lett, 1999) one finds IC50, EC50 and Activation data, which are given here for 31 compounds.

By IC50 is commonly meant the concentration needed to halve the response being measured. The low end stands for greater potency, the high end for weaker potency. What is called EC50 is the concentration that produces a half-maximal response. A higher EC50 goes with a less potent agent.

Assay [1] concerns the target Beta-2 adrenergic receptor (Homo sapiens, UniProt P07550). Briefly: biochemical.
Description: In vitro binding affinity towards cloned human beta-2 adrenergic receptor using [125I]iodocyanopindolol as radioligand to stimulate increase in cAMP in CHO cells
Assay [2] addresses T1, Beta-3 adrenergic receptor (Homo sapiens, UniProt P13945). The assay can be described thus: In vitro agonistic activity against cloned human beta-3 adrenergic receptor […] increase in cAMP in CHO cells. Type of assay: functional, cell-based.
Target sequence in this assay (P13945 whole entry): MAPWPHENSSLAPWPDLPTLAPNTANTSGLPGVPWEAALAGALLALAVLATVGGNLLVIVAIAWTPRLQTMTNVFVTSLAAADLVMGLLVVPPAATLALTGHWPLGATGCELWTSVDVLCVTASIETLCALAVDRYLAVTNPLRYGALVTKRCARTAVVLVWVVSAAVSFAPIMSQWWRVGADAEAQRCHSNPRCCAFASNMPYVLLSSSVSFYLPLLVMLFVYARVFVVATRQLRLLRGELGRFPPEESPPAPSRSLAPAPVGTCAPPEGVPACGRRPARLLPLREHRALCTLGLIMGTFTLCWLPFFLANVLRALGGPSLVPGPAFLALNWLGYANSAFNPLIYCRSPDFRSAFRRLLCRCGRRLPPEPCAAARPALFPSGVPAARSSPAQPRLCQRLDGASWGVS
Assay [3] has as its target Beta-1 adrenergic receptor (Homo sapiens, UniProt P08588). The assay can be described thus: biochemical.
Description: In vitro binding affinity towards cloned human beta-1 adrenergic receptor using [125I]iodocyanopindolol as radioligand to stimulate increase in cAMP in CHO cells
The target of assay [4] is T1, Beta-3 adrenergic receptor. The assay can be described thus: Adenylyl cyclase activation as percent maximal stimulation with isoproterenol at 100 nM. Format: functional.
Target sequence in this assay (P13945 whole entry, looked up): as the sequence (P13945 whole entry) above

Chain of Beta-2 adrenergic receptor (P07550 whole entry): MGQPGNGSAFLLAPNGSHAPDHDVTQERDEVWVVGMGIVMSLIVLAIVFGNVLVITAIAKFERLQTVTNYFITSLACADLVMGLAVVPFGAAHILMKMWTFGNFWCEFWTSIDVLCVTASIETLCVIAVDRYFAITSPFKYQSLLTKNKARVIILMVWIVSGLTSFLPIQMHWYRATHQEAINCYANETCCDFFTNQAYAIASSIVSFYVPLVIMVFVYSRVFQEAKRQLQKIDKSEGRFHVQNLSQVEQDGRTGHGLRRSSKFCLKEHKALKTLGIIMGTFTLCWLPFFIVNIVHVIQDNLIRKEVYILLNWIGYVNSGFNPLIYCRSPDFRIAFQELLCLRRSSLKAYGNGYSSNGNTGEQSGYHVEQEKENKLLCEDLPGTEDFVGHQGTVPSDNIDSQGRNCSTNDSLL
Chain of Beta-1 adrenergic receptor (P08588 whole entry): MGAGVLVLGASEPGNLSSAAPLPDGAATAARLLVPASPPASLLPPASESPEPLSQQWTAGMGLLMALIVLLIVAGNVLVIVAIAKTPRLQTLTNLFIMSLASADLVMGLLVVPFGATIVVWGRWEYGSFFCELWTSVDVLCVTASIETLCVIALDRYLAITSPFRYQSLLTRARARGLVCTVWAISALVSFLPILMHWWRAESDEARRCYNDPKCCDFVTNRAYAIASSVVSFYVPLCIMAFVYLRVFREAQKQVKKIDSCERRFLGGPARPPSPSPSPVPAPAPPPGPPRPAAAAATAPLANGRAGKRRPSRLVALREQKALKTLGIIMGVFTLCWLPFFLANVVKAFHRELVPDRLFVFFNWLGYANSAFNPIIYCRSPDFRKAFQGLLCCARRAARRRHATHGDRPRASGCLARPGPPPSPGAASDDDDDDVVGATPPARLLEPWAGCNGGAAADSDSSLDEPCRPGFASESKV

`CCCCCCCCc1cnc(N2CCc3cc(S(=O)(=O)Nc4ccccc4)ccc32)o1`: the half-inhibitory concentration (IC50) in assay [1] stood at 0.18 µM; in assay [3], 4.2 µM. Further, in assay [2], the half-maximal effective concentration (EC50) stood at 0.0037 µM.
For `CCCCCCc1ccnc(N2CCc3cc(S(=O)(=O)Nc4ccccc4)ccc32)n1`, in that order: 0.62 µM, 1.4 µM and 0.0051 µM.
For `CCCCCCCCc1ccnc(N2CCc3cc(S(=O)(=O)Nc4ccccc4)ccc32)n1`, in that order: 0.53 µM, 1 µM and 0.0024 µM.
For `CCCCCCCCc1csc(Nc2ccc(S(=O)(=O)Nc3ccccc3)cc2)n1`, in that order: 0.34 µM, 0.65 µM and 0.0008 µM.
`CCCCCCc1cccc(N2CCc3cc(S(=O)(=O)Nc4ccccc4)ccc32)c1`: the results for the concentration for half-maximal inhibition (IC50) in assay [1] and in assay [3] were 0.46 µM and 0.7 µM, respectively. Besides, in assay [2], the midpoint of the response, the EC50, lay at 0.0018 µM.
For `CCCCCCNC(=O)N1CCc2cc(S(=O)(=O)Nc3ccccc3)ccc21`, in that order: 36 µM, 40 µM and 0.0069 µM.
In assay [4], `O=S(=O)(Nc1ccccc1)c1ccc2c(c1)CCN2c1noc(CCCC2CCCC2)n1` displayed an Activation of 20%. For the same compound, the IC50 was 0.042 µM in assay [1] and 0.33 µM in assay [3].
As for `CCCCCCCCNC(=O)N1CCc2cc(S(=O)(=O)Nc3ccccc3)ccc21`, the concentration for half-maximal inhibition (IC50) in assay [1] was determined as 0.63 µM; in assay [3], 1 µM. Besides, the concentration giving a half-maximal response (EC50) in assay [2] was 0.00073 µM.
For `Cc1csc(N2CCc3cc(S(=O)(=O)Nc4ccccc4)ccc32)n1`, in that order: 0.75 µM, 4 µM and 0.0081 µM.
The compound `O=S(=O)(Nc1ccc(CCNC[C@H](O)COc2ccc(O)cc2)cc1)c1ccc2c(c1)CCN2` registered an EC50 in assay [2] of 0.00065 µM.
For `CCCCCCc1csc(N2CCc3cc(S(=O)(=O)Nc4ccccc4)ccc32)n1`, the results for the IC50 in assay [1] and in assay [3] were 0.51 µM and 1.4 µM, respectively. For the same compound, the midpoint of the response in assay [2], the EC50, lay at 0.0009 µM.
In assay [4], `CCCCCCNC(=O)N(C)c1ccc(S(=O)(=O)Nc2ccc(CCNC[C@H](O)c3cccnc3)cc2)cc1` returned an Activation of 20%. Besides, the IC50 in assay [1] and in assay [3] was 10 µM throughout.
In the case of `CCCCCCN(C)C(=O)N1CCc2cc(S(=O)(=O)Nc3ccccc3)ccc21`, the figures for the half-inhibitory concentration (IC50) in assay [1] and in assay [3] were 6.5 µM and 10 µM, respectively. The EC50 in assay [2] stood at 0.047 µM.
For `CNC(=O)N1CCc2cc(S(=O)(=O)Nc3ccccc3)ccc21`, in that order: 7.3 µM, 100 µM and 0.055 µM.
For `CCCCCCCCc1csc(N(C)c2ccc(S(=O)(=O)Nc3ccccc3)cc2)n1`, in that order: 0.44 µM, 1.5 µM and 0.0055 µM.
For `CCCCCCCCc1cccc(N2CCc3cc(S(=O)(=O)Nc4ccccc4)ccc32)c1`, in that order: 1.5 µM, 2.5 µM and 0.0013 µM.
Take `CCCCCCCCN(C)C(=O)N1CCc2cc(S(=O)(=O)Nc3ccccc3)ccc21`: the 50% inhibitory concentration (IC50) stood at 1 µM in assay [1] and 0.97 µM in assay [3]. This compound had an EC50 in assay [2] of 0.018 µM.
As to `CCCCCCCCc1csc(N2CCc3cc(S(=O)(=O)Nc4ccccc4)ccc32)n1`, the IC50 in assay [1] stood at 1.3 µM; in assay [3], 2.6 µM. In addition, the response in assay [2] was half-maximal at 0.00093 µM (EC50).
For `CCCCCCc1nc(N2CCc3cc(S(=O)(=O)Nc4ccccc4)ccc32)no1`, the IC50 amounted to 0.052 µM in assay [1] and 0.6 µM in assay [3]. The compound also showed an EC50 in assay [2] of 0.013 µM.
As for `CN(C(=O)N1CCc2cc(S(=O)(=O)Nc3ccccc3)ccc21)C(C)(C)Cc1ccccc1`, the Activation in assay [4] came to 17%. Moreover, the results for the IC50 in assay [1] and in assay [3] were 8 µM and 3 µM, respectively.
Regarding `CCCCCCC(=O)N1CCc2cc(S(=O)(=O)Nc3ccccc3)ccc21`, the values for the half-inhibitory concentration (IC50) in assay [1] and in assay [3] were 2 µM and 10 µM, respectively. This compound had an EC50 in assay [2] of 0.088 µM.
For `CN(CCc1ccccc1)C(=O)N1CCc2cc(S(=O)(=O)Nc3ccccc3)ccc21`, in that order: 2.5 µM, 10 µM and 0.055 µM.
For `CCCCCCCCc1cccc(N2CCc3cc(S(=O)(=O)Nc4ccccc4)ccc32)n1`, in that order: 0.063 µM, 0.22 µM and 0.001 µM.
For `O=S(=O)(Nc1ccccc1)c1ccc2c(c1)CCN2c1cccc(CCCC2CCCC2)c1`, in that order: 7.5 µM, 4 µM and 0.005 µM.
As to `CCCCCCc1ccc(N2CCc3cc(S(=O)(=O)Nc4ccccc4)ccc32)nc1`, the results for the half-maximal inhibitory concentration (IC50) in assay [1] and in assay [3] were 0.24 µM and 1.8 µM, respectively. A half-maximal effect in assay [2] (EC50) was put at 0.0016 µM.
For `CCCCCCc1cccc(N2CCc3cc(S(=O)(=O)Nc4ccccc4)ccc32)n1`, in that order: 0.14 µM, 0.9 µM and 0.0012 µM.
For `CCCCCCCCC(=O)N1CCc2cc(S(=O)(=O)Nc3ccccc3)ccc21`, the 50% inhibitory concentration (IC50) was found to be 1 µM in assay [1] and 1.8 µM in assay [3]. A half-maximal response in assay [2] (EC50) required 0.007 µM.
For `CCCCCCCCc1nc(N2CCc3cc(S(=O)(=O)Nc4ccccc4)ccc32)no1`, in that order: 0.1 µM, 0.58 µM and 0.031 µM.
For `O=S(=O)(Nc1ccccc1)c1ccc2c(c1)CCN2c1cccc(CCCC2CCCC2)n1`, in that order: 0.45 µM, 3 µM and 0.0017 µM.
Take `CN(C)C(=O)N1CCc2cc(S(=O)(=O)Nc3ccccc3)ccc21`: the Activation in assay [4] was 8%. The IC50 in assay [1] was 7 µM; in assay [3] it was 9 µM.
`O=S(=O)(Nc1ccccc1)c1ccc2c(c1)CCN2c1nc(CCCC2CCCC2)cs1`: the IC50 in assay [1] came out at 0.9 µM; in assay [3], 4 µM. Moreover, a half-maximal effect in assay [2] (EC50) was put at 0.0032 µM.
